Drawing on the pKa sets of Baltruschat and Czodrowski (2020), this text covers pKa for 102 molecules.

For one data set the following is noted: acidic group.
In the case of `CC(O)[C@@H]1C[C@H](CC(=O)O)C1(C)C` (stereo partly drawn), the pKa is 4.83.

For `Cc1ccc(C(=O)O)cc1Cl`, the pKa came to 4.06. Same read-out and setting: as for `CCC(C(C)=O)C(C)=O`, the figure is 11.3; as for `CCCC(=O)OO`, 8.2.

`Cn1c(=S)[nH]c2cncnc21` gave a pKa of 7.48. As to `CCN(CC)C(=S)S`, the pKa was 3.95. For the molecule `O=[N+]([O-])c1cc[n+](O)cc1`, the pKa is -1.7.

In the case of `CN1CC(O)C2=C/C(=N\O)C(=O)C=C21` (stereo not drawn), the pKa was determined as 8.6. Same read-out and setting: as for `[NH3+]C(CC(=O)O)c1cccc[nH+]1` (stereo not drawn), the figure is 1.3; as for `O=C(O)c1nsc2ccccc12`, 2.76.

`Nc1c2ccccc2[nH+]c2c(O)cccc12` gave a pKa of 7.05.

Molecule `CC[NH2+]CC[SeH]` registered a pKa of 5.04. Same read-out and setting: as for `Clc1cccc(-c2nnn[nH]2)c1`, the figure is 3.61; as for `Oc1c(Cl)cc(Cl)cc1C[NH+]1CCCCC1`, 5.97. On the same count and under the same terms, as for `O=C([O-])c1ccccc1-n1nc(O)cc1-c1ccccc1`, the figure is 12.5; as for `Cc1ncc2c(c1O)C(O)OC2` (stereo not drawn), 8.75.

The molecule `CC(C)CP(=O)(O)CC(C)C` yielded a pKa of 3.25.

Molecule `C[N+]1(CCC(=O)O)CCCCC1` registered a pKa of 3.43. As to `CC(C)=C(C(N)=O)C(=O)O`, the pKa was 3.95. For `Nc1ncc([N+](=O)[O-])cn1`, the pKa is 14.7. Same read-out and setting: as for `COC(=O)/C(=N/O)c1ccccc1`, the figure is 8.87; as for `CCC(=O)/C=N/O`, 8.37; as for `CC1(C)CC(=O)C(Br)C(=O)C1`, 3.1. Still for that read-out and setting: as for `O=[N+]([O-])c1cc(-c2ccccc2)ccc1O`, the figure is 6.73. The same measure, in the same setting: as for `CC(=O)C(Cc1ccccc1)C(C)=O`, the figure is 10.5. `O=C(NO)c1ccc([N+](=O)[O-])cc1`: the pKa is 8.02.

Molecule `Cc1cc([O-])ccc1O` returned a pKa of 11.8.

With `COc1ccc(NS(=O)(=O)c2ccccc2)cc1`, the pKa was determined as 8.88. `C[C@@H](C(=O)c1ccc(O)cc1)[NH+](C)Cc1ccccc1`: the pKa was 7.5. Still for that read-out and setting: as for `c1ccc(CSc2cnn[nH]2)cc1`, the figure is 8.2; as for `C/C(C#[N+][O-])=N\O`, 8.8.

With `Cc1nc(-c2ccccc2[S-])[nH]c1C`, the pKa came out at 9. The same measure, in the same setting: the figure for `CCCCN(C(=O)c1ccc(O)cc1)c1ccc(/N=N/c2ccc3c(c2)OCCOCCOCCOCCOCCO3)cc1` is 9.12. Same read-out and setting: as for `COP(=O)(O)NS(=O)(=O)c1ccccc1`, the figure is 1.05; as for `Cc1ccc(O)c(Cc2cc([N+](=O)[O-])ccc2[O-])c1`, 11.5; as for `Oc1cc[nH+]cc1`, 4.04. Turning to `O=[N+]([O-])c1ccc([O-])c(O)c1`, the pKa worked out at 10.9. On the same count and under the same terms, the figure for `O=C1NC(=O)c2cc(Cl)ccc21` is 9.48. The molecule `O=Cc1ccccc1B(O)O` yielded a pKa of 7.31.

`CCCSC(C)C(=O)O` (stereo not drawn) returned a pKa of 3.82. Still for that read-out and setting: the figure for `O=C(O)CSCc1ccccc1` is 3.73. On the same count and under the same terms, as for `CNc1cc[nH+]c(S)n1`, the figure is 3.09. On the same count and under the same terms, the figure for `Cc1cc(S(=O)(=O)Nc2nccs2)ccc1N` is 7. Take `O=S1(=O)N=CNc2cccnc21`: the pKa came to 6.94. `COc1ccc(O)c(Br)c1` showed a pKa of 8.62. On the same count and under the same terms, the figure for `CC(C)(/C=C/C(=O)[O-])c1ccccc1O` is 10.7.

The molecule `CC(O)(C(=O)O)c1ccccc1` (stereo not drawn) came in with a pKa of 3.53.

The same data set, now with this note: basic group.
Molecule `Oc1ccc(C2NCCS2)cc1` (stereo not drawn) registered a pKa of 5.5. Consider `CCC(C)(C)N(C)C(C)(C)C`, for which the pKa was found to be 11.9. Consider `COCCNc1ccccc1`, for which the pKa is 4.05. Consider `Cc1nccnc1C`, for which the pKa worked out at 2.24.

Turning to `COCC(C)CN(C)C` (stereo not drawn), the pKa is 9.69.

In turn, `[O-]c1cc[n+]([C@H]2O[C@@H](CO)[C@H](O)[C@H]2O)c([O-])n1` registered a pKa of 9.3.

In the case of `CNCc1ccccn1`, the pKa turned out to be 8.96. Still for that read-out and setting: as for `O=C1CCc2ccccc2C1`, the figure is 12.8. Same read-out and setting: the figure for `N#Cc1ccc(N)cc1` is 1.74. Molecule `COc1ccc(CN)cc1` displayed a pKa of 9.67. The same measure, in the same setting: as for `CCCN(C)C`, the figure is 9.62; as for `Nc1c(Br)cccc1Br`, 0.36. Consider `NC1CCN(Cc2ccccc2)CC1`, for which the pKa worked out at 9.79. On the same count and under the same terms, the figure for `O=[N+]([O-])c1ccc2[nH]c(C(F)(F)Cl)nc2c1` is 0.77; for `NCCCCCC#CC#CCCC(=O)[O-]` it is 10.7. Regarding `COc1ccc(/N=C/N(C)C)cc1`, the pKa came to 9.35.

In turn, `COc1ccc(Cl)c2cccnc12` displayed a pKa of 4.13.

`CN(O)Cc1ccccc1` returned a pKa of 4.6. On the same count and under the same terms, the figure for `CC1=Nc2ccccc2CO1` is 4.64; for `COc1nc(C)cc([O-])n1` it is 8.4. The same measure, in the same setting: as for `Cc1ncc2c(c1O)C(O)OC2` (stereo not drawn), the figure is 4.3. Still for that read-out and setting: the figure for `O=C1CCC[C@H]2[C@H]3C[C@@H](CN12)[C@@H]1CCCCN1C3` is 9.4. Molecule `Nc1cccc2cncnc12` had a pKa of 2.81. Same read-out and setting: the figure for `CC(C)N(CC1CO1)CC1CO1` (stereo not drawn) is 7.07; for `N[C@H]1CCCC[C@@H]1[NH3+]` it is 6.71. The molecule `CCN(CC)CCNc1nc(C)nc(Nc2ccc(Cl)cc2)n1` showed a pKa of 9.3.

For `NCCCN`, the pKa turned out to be 10.6.

Take `COC(=O)C1=CCCNC1`: the pKa was found to be 8.7.

For the molecule `Cc1cnc2c(ccc3c(C)ccnc32)c1C`, the pKa amounted to 5.99. Take `c1ccc2cnccc2c1`: the pKa stood at 5.36. Same read-out and setting: the figure for `c1cncc(-c2ccc[nH]2)c1` is 4.32; for `O=C([O-])C(NCCNC(C(=O)[O-])c1ccccc1[O-])c1ccccc1[O-]` (stereo not drawn) it is 11.7. Same read-out and setting: the figure for `CNCC(=O)NC` is 8.28; for `NCCc1ccncc1` it is 9.37. Still for that read-out and setting: as for `Cc1ccc(NCCS)cc1`, the figure is 5.08; as for `COc1ccc2ccc(OC)c(N3CCOCC3)c2c1N1CCOCC1`, 13. `CC1CCNCC1` came in with a pKa of 10.9. For `c1ccc(-c2ccnc3c2ccc2c(-c4ccccc4)ccnc23)cc1`, the pKa was 4.84. Same read-out and setting: as for `NCCCCCCCCCCC(=O)[O-]`, the figure is 11; as for `c1ccc(C(OCCN2CCCCC2)c2ccccc2)cc1`, 8.03. The same measure, in the same setting: the figure for `CCCCN` is 10.7; for `Cc1nc(C)nc(N)n1` it is 3.6; for `Cc1cc2c(C)ccnc2c2ncccc12` it is 5.71. Same read-out and setting: as for `CCOCCn1c(CN2CCCN(CCCCn3cccn3)CC2)nc2ccccc21`, the figure is 9.2; as for `c1nc(Cc2c[nH]c(Cc3[nH]cc[nH+]3)n2)c[nH]1`, 6.15; as for `NC(N)=S`, -0.96. The molecule `COc1cccc([O-])n1` returned a pKa of 9.77. Same read-out and setting: as for `Cc1nc2ccccc2n(C)c1=O`, the figure is 0.51; as for `Nc1ccccc1[NH3+]`, 1.3. On the same count and under the same terms, the figure for `NNC(=O)c1cc[nH+]cc1` is 1.67. `CCCNC(=O)[C@H](Cc1c[nH]cn1)NC(=O)c1cccc(CNCCN)n1`: the pKa worked out at 9.3. `c1ccc2cnncc2c1` yielded a pKa of 3.47. Take `C[NH+]1CCN(C(c2ccccc2)c2ccc(Cl)cc2)CC1` (stereo not drawn): the pKa turned out to be 2.43. Consider `CN(C)/C=N/c1cccc(Br)c1`, for which the pKa is 8.08. `CNCCN(C)CCN`: the pKa stood at 10.2. On the same count and under the same terms, as for `c1ccc(-c2cccc[nH+]2)nc1`, the figure is 1.47.
